System: Monoclonal mouse 5α-PtG antibody
Test: Cross-reactivity of monoclonal 5α-PtG antibody (enzyme immunoassay)
Type: binding
Conditions: monoclonal mouse 5α-PtG antibody raised against 5α-PtG-KLH
Procedure: Monoclonal mouse 5α-PtG antibody was raised against the 5α-PtG-KLH by Thermo Fisher Scientific (Rockford, TL, USA). The antibodies were screened against the 5α-PtG-BSA. Cross-reactivities for the antibody were: 100% 5α-pregnane-3β,6α,20β-triol glucuronide, 25.4% 5α-pregnane-3β,6α,20β-triol, 0.5% 5β-pregnane-3α,20β-diol and 0.5% 5α-pregnane-3β,6α-diol-20-one.
The 96 well polystyrene, certified MaxiSorp® plates were coated with antigen (5α-PtG-cBSA) by adding 100 μl of 0.25 μg/ml antigen in coating buffer (0.01 M sodium bicarbonate, pH 9.5) in each well. The plates were covered with plastic sticker to prevent evaporation, protected from light and incubated at room temperature over night or several nights at +4° C. The wells were emptied and washed once with 250 μl general washing buffer (e.g. PBS with 0.05% Tween 20 (PBST)), filled with 200 μl blocking buffer (5% sucrose and 0.5% BSA in PBST (w/V)), covered and incubated at +37° C. for a half an hour. The plates were poured empty and dried for three hours at +37° C. Dried plates were covered with plastic sticker, packed in re-sealable plastic bags with silica beads and stored at +4° C. until use.
The hormone assays were performed from the individual samples collected in different oestrus cycle phases and from the urine sample series from 60 bitches. The 5α-PtG-cBSA coated plates were washed once with 250 μl of PBST. The urine samples were diluted 1:20 in assay buffer (0.2% BSA (w/V) in PBS with 0.01% Triton-X) and added in sample wells (50 μl). A dilution series of standard was prepared by diluting the 5α-PtG in assay buffer and added to standard wells (50 μl; 1200-1.6 nM). Assay buffer without additives was added to two wells to determine the maximum binding capacity (B0) and 1900 nM 5α-PtG control was diluted 1:20 in assay buffer and used as a recovery control in all assays. All samples and standards were measured as two replicates. The stock dilution of monoclonal mouse 5α-PtG antibody (1:100) was further diluted 1:100 in assay buffer and added 50 μl in each well. The plate was covered and incubated at +37° C. for half an hour, followed by washing the plate three times. Horseradish peroxidase labeled secondary antibody (goat anti-mouse IgG HRP) was diluted in 1:20 000 in 0.5% BSA (w/V) in PBST, added 100 μl per well and incubated half an hour at +37° C. After washing the plate three times with PBST, TMB in DMSO solution (0.5% 3,3′,5,5′-tetramethylbenzidine in dimethylsulfoxide (w/V; TCIAT1023 Tokyo Chemical Industry)) was diluted 1:50 in substrate buffer (0.1 M sodium acetate trihydrate, 1.5 mM citric acid monohydrate, 0.005% hydrogen peroxide (30%)), added in each well (100 μl) and incubated at room temperature 30 minutes. The reaction was stopped by adding 50 μl 1 M sulfuric acid to each well. The absorbance was measured at 450 nm by microplate reader (Hidex Sense).

Row | SMILES | Cross-reactivities for the antibody
1 | C[C@@H](O)[C@H]1CC[C@H]2[C@@H]3C[C@H](O[C@@H]4O[C@H](C(=O)O)[C@@H](O)[C@H](O)[C@H]4O)[C@H]4C[C@@H](O)CC[C@]4(C)[C@H]3CC[C@]12C [5α-PtG, 5α-pregnane-3β,6α,20β-triol-6-O-β-D-glucuronide] | 100%
2 | C[C@H](O)[C@H]1CC[C@H]2[C@@H]3C[C@H](O)[C@H]4C[C@@H](O)CC[C@]4(C)[C@H]3CC[C@]12C [5α-pregnane-3β,6α,20α-triol] | No cross-reactivities
3 | C[C@@H](O)[C@H]1CC[C@H]2[C@@H]3C[C@H](O)[C@H]4C[C@@H](O)CC[C@]4(C)[C@H]3CC[C@]12C [5α-pregnane-3β,6α,20β-triol] | 25.4%
4 | CC(=O)[C@H]1CC[C@H]2[C@@H]3C[C@H](O)[C@H]4C[C@@H](O)CC[C@]4(C)[C@H]3CC[C@]12C [5α-pregnane-3β,6α-diol-20-one] | 0.5%
5 | C[C@@H](O)[C@@]1(O)CCC2C3CC[C@H]4C[C@@H](O)CC[C@]4(C)C3CC[C@@]21C (stereo partly drawn) [5α-pregnane-3β,17α,20β-triol] | No cross-reactivities
6 | C[C@H](O)[C@@]1(O)CC[C@H]2[C@@H]3CC[C@@H]4C[C@H](O)CC[C@]4(C)[C@H]3CC[C@@]21C [5β-pregnane-3α,17α,20α-triol] | No cross-reactivities
7 | CC(O)C1(O)CCC2C3CCC4CC(O)CCC4(C)C3CCC21C (stereo not drawn) [5β-pregnane-3α,17α,20β-triol] | No cross-reactivities
8 | C[C@H](O)[C@H]1CC[C@H]2[C@@H]3CC[C@@H]4C[C@H](O)CC[C@]4(C)[C@H]3CC[C@]12C [5β-pregnane-3α,20α-diol] | No cross-reactivities
9 | C[C@@H](O)[C@H]1CC[C@H]2[C@@H]3CC[C@@H]4C[C@H](O)CC[C@]4(C)[C@H]3CC[C@]12C [5β-pregnane-3α,20β-diol] | 0.5%
10 | C[C@H](O)[C@H]1CC[C@H]2[C@@H]3CC[C@@H]4C[C@H](O[C@@H]5O[C@H](C(=O)O)[C@@H](O)[C@H](O)[C@H]5O)CC[C@]4(C)[C@H]3CC[C@]12C [PdG, 5β-pregnane-3α,20α-diol-3-glucuronide] | No cross-reactivities
11 | CC(=O)[C@H]1CC[C@H]2[C@@H]3CCC4=CC(=O)CC[C@]4(C)[C@H]3CC[C@]12C [progesterone, pregn-4-ene-3,20-dione] | No cross-reactivities

System: hepatic S9 enzymes
Test: In vitro metabolism of progesterone by hepatic S9
Type: in vitro ADME, dog
Conditions: after one hour with ovarian S9, hepatic S9 added

Row | SMILES | change of 17α-OHP when hepatic S9 were added
12 | CC(=O)[C@@]1(O)CC[C@H]2[C@@H]3CCC4=CC(=O)CC[C@]4(C)[C@H]3CC[C@@]21C [17α-OHP, 17α-hydroxyprogesterone] | decreased significantly

Same assay, conditions: dog, 50 µg/mL

Row | SMILES | hydroxyprogesterones produced from progesterone
13 | CC(=O)[C@H]1CC[C@H]2[C@@H]3CCC4=CC(=O)CC[C@]4(C)[C@H]3CC[C@]12C [progesterone, pregn-4-ene-3,20-dione] | higher amounts of 6α-, 6β- and 16α-hydroxyprogesterones were detected

— patent US20260276660A1, “DETERMINATION OF PROGESTOGENS NON-INVASIVELY IN ANIMALS” (Vetcare Oy, priority 2023, published 2026)
